Assay results reported in patent EP4722363A1, “RNAI AGENT FOR INHIBITING ANGPTL3 EXPRESSION AND USE THEREOF” (YUN HO BIO CO., LTD, priority 2023, dated 2024).

What was measured:
ANGPTL3 Protein [1] = test: PCH free uptake, inhibition of ANGPTL3, ELISA of supernatant; assay type: cell-based; details: primary cynomolgus monkey hepatocytes, 72 hours
Description: PCH cells were resuscitated using 10% FBS InvitroGRO™ HT Medium, and subsequently, the cell density was adjusted to 3×10^5 cells/mL using 10% FBS InvitroGRO™ CP Medium. Then, 10 µL of the compound from the dilution plate was added to the cell culture plate, resulting in final compound concentrations of 25, 5, and 1 nM. The cells were seeded into a 96-well plate at a density of 27,000 cells per well (90 µL/well), with a final culture volume of 100 µL per well. The cells were cultured in a 5% CO2 incubator at 37 °C for 72 hours.
(§1) The supernatant from the PHH and PCH cultures from the previous steps was collected, transferred to a new 96-well V-bottom plate, and centrifuged. Human Angiopoietin-like 3 protein (hANGPTL3 protein; DANL30) ELISA test was performed according to the instructions of HANGPTL 3 protein Kit.
(§2) Data Analysis: Four Parameter Logistic method. This method constructs a standard curve by plotting, with the y-axis as the average absorbance of the standards and the x-axis as the concentration, drawing a best-fit curve through the points on the graph. The OD value of the log concentration of the sample's HANGPTL3 protein is determined against the best-fit line of the log concentration by regression analysis. [formula]
(§3) Sequences with good activity in Table 8 were evaluated for in vitro inhibitory activity against ANGPTL3 Protein in primary human hepatocytes (PHH) and primary cynomolgus monkey hepatocytes (PCH). Table 10. In Vitro Inhibitory Activity of MCPP-siRNAs against ANGPTL3 mRNA in PHH Cell Line

ANGPTL3 Protein [2] = test: PHH free uptake, inhibition of ANGPTL3, ELISA of supernatant; assay type: cell-based; details: primary human hepatocytes, 72 hours
Description: PHH cells were thawed and adjusted to a density of 6×10^5 cells/mL. Then, 10 µL of the compound from the dilution plate was added to the cell culture plate, resulting in final compound concentrations of 100, 40, 12.5, 5, and 2 nM. The cells were seeded into a 96-well plate at a density of 54,000 cells per well (90 µL/well), with a final culture volume of 100 µL per well. The cells were cultured in a 5% CO2 incubator at 37°C for 72 hours.
as §1, §2, §3

| Substance | Average Inhibition in PCH % (ANGPTL3 Protein [1]; 1nM) [%] | Average Inhibition in PCH % (ANGPTL3 Protein [1]; 5nM) [%] | Average Inhibition in PCH % (ANGPTL3 Protein [1]; 25nM) [%] | IC50 (ANGPTL3 Protein [2]) [nM] |
| --- | --- | --- | --- | --- |
| 2008-019-002: GalNAc-conjugated modified ANGPTL3 siRNA, sense SEQ ID NO 36, antisense SEQ ID NO 28 (sense GAGAAGAACUACAUAUAAA; antisense UUUAUAUGUAGUUCUUCUCAG; GalNAc conjugated, chemically modified, pattern not given here) [Duplex 2008-019-002] | 52.37 | 70.28 | 73.74 | 1.11 |
| 2002-034-001: GalNAc-conjugated modified ANGPTL3 siRNA, sense SEQ ID NO 38, antisense SEQ ID NO 13 (sense CAUAGUGAAGCAAUCUAAU; antisense AUUAGAUUGCUUCACUAUGGA; GalNAc conjugated, chemically modified, pattern not given here) [Duplex 2002-034-001] | 50.50 | 63.43 | 66.66 | 1.38 |
| ARO-05488-003-NAG37: GalNAc-conjugated comparator ANGPTL3 siRNA, sense SEQ ID NO 44, antisense SEQ ID NO 45 (sense GCUCAACAUAUUUGAUCAGUA; antisense UACUGAUCAAAUAUGUUGAGC; GalNAc (NAG37) conjugate, chemistry not fully specified) [reference compound] | 28.48 | 49.83 | 60.00 | 7.19 |
| 2008-035-002: GalNAc-conjugated modified ANGPTL3 siRNA, sense SEQ ID NO 37, antisense SEQ ID NO 28 (sense GAGAAGAACUACAUAUAAA; antisense UUUAUAUGUAGUUCUUCUCAG; GalNAc conjugated, chemically modified, pattern not given here) [Duplex 2008-035-002] |  |  |  | 2.23 |
| 2002-018-002: GalNAc-conjugated modified ANGPTL3 siRNA, sense SEQ ID NO 34, antisense SEQ ID NO 13 (sense CAUAGUGAAGCAAUCUAAU; antisense AUUAGAUUGCUUCACUAUGGA; GalNAc conjugated, chemically modified, pattern not given here) [Duplex 2002-018-002] |  |  |  | 0.96 |
| 2008-011-001: GalNAc-conjugated modified ANGPTL3 siRNA, sense SEQ ID NO 40, antisense SEQ ID NO 28 (sense GAGAAGAACUACAUAUAAA; antisense UUUAUAUGUAGUUCUUCUCAG; GalNAc conjugated, chemically modified, pattern not given here) [Duplex 2008-011-001] | 57.51 | 72.91 | 77.81 | 2.6 |
| 2008-010-002: GalNAc-conjugated modified ANGPTL3 siRNA, sense SEQ ID NO 35, antisense SEQ ID NO 27 (sense GAGAAGAACUACAUAUAAA; antisense UUUAUAUGUAGUUCUUCUCAG; GalNAc conjugated, chemically modified, pattern not given here) [Duplex 2008-010-002] |  |  |  | 0.98 |
| 2002-018-001: GalNAc-conjugated modified ANGPTL3 siRNA, sense SEQ ID NO 39, antisense SEQ ID NO 13 (sense CAUAGUGAAGCAAUCUAAU; antisense AUUAGAUUGCUUCACUAUGGA; GalNAc conjugated, chemically modified, pattern not given here) [Duplex 2002-018-001] |  |  |  | 1.9 |
| 2002-033-001: GalNAc-conjugated modified ANGPTL3 siRNA, sense SEQ ID NO 38, antisense SEQ ID NO 12 (sense CAUAGUGAAGCAAUCUAAU; antisense AUUAGAUUGCUUCACUAUGGA; GalNAc conjugated, chemically modified, pattern not given here) [Duplex 2002-033-001] | 53.11 | 67.45 | 68.80 | 1.08 |
| 2008-018-002: GalNAc-conjugated modified ANGPTL3 siRNA, sense SEQ ID NO 36, antisense SEQ ID NO 27 (sense GAGAAGAACUACAUAUAAA; antisense UUUAUAUGUAGUUCUUCUCAG; GalNAc conjugated, chemically modified, pattern not given here) [Duplex 2008-018-002] |  |  |  | 0.96 |
| 2008-019-001: GalNAc-conjugated modified ANGPTL3 siRNA, sense SEQ ID NO 41, antisense SEQ ID NO 28 (sense GAGAAGAACUACAUAUAAA; antisense UUUAUAUGUAGUUCUUCUCAG; GalNAc conjugated, chemically modified, pattern not given here) [Duplex 2008-019-001] | 58.78 | 73.01 | 75.51 | 1.61 |
| 2002-034-002: GalNAc-conjugated modified ANGPTL3 siRNA, sense SEQ ID NO 33, antisense SEQ ID NO 13 (sense CAUAGUGAAGCAAUCUAAU; antisense AUUAGAUUGCUUCACUAUGGA; GalNAc conjugated, chemically modified, pattern not given here) [Duplex 2002-034-002] | 45.42 | 60.18 | 63.01 | 1.3 |
| 2002-050-L96: L96-conjugated comparator siRNA, sense SEQ ID NO 43, antisense SEQ ID NO 18 (sense CAUAGUGAAGCAAUCUAAU; antisense AUUAGAUUGCUUCACUAUGGA; L96 GalNAc conjugate, position not given here, modification pattern not given here) [Duplex 2002-050-L96, reference compound] |  |  |  | 2.6 |
| 2008-035-001: GalNAc-conjugated modified ANGPTL3 siRNA, sense SEQ ID NO 42, antisense SEQ ID NO 28 (sense GAGAAGAACUACAUAUAAA; antisense UUUAUAUGUAGUUCUUCUCAG; GalNAc conjugated, chemically modified, pattern not given here) [Duplex 2008-035-001] | 46.03 | 63.23 | 68.96 | 2.34 |
| 2008-011-002: GalNAc-conjugated modified ANGPTL3 siRNA, sense SEQ ID NO 35, antisense SEQ ID NO 28 (sense GAGAAGAACUACAUAUAAA; antisense UUUAUAUGUAGUUCUUCUCAG; GalNAc conjugated, chemically modified, pattern not given here) [Duplex 2008-011-002] | 54.65 | 71.25 | 76.57 | 0.75 |
| 2002-033-002: GalNAc-conjugated modified ANGPTL3 siRNA, sense SEQ ID NO 33, antisense SEQ ID NO 12 (sense CAUAGUGAAGCAAUCUAAU; antisense AUUAGAUUGCUUCACUAUGGA; GalNAc conjugated, chemically modified, pattern not given here) [Duplex 2002-033-002] |  |  |  | 0.84 |
